Series [1] has as its target T1, CYP2B6 (Homo sapiens, UniProt P20813).
T1 sequence (P20813 1-491): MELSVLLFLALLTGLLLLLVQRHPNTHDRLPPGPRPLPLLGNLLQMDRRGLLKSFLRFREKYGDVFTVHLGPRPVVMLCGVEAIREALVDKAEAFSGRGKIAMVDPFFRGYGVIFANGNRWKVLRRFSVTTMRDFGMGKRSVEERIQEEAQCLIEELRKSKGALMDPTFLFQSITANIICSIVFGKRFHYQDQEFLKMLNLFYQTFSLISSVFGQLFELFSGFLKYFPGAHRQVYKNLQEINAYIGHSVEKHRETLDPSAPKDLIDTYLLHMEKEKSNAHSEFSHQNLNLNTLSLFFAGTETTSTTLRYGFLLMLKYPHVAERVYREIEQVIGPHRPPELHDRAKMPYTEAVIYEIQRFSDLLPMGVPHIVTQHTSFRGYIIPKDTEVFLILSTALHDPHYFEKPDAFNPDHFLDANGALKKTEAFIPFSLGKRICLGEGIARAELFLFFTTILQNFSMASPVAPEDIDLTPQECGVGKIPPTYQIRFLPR
Nature of the series: CYP reversible inhibition in HLMs. It counts as in vitro ADME.

A further series has as its target CYP2D6 (Homo sapiens, UniProt P10635). Description: CYP reversible inhibition in HLMs. The format is in vitro ADME.
The subject of series [2] is CYP2C8. Description: CYP induction in human hepatocytes. The format is in vitro ADME.
Another series has as its target T2, human BCRP (Homo sapiens, UniProt Q9UNQ0).
T2 sequence (Q9UNQ0 1-655): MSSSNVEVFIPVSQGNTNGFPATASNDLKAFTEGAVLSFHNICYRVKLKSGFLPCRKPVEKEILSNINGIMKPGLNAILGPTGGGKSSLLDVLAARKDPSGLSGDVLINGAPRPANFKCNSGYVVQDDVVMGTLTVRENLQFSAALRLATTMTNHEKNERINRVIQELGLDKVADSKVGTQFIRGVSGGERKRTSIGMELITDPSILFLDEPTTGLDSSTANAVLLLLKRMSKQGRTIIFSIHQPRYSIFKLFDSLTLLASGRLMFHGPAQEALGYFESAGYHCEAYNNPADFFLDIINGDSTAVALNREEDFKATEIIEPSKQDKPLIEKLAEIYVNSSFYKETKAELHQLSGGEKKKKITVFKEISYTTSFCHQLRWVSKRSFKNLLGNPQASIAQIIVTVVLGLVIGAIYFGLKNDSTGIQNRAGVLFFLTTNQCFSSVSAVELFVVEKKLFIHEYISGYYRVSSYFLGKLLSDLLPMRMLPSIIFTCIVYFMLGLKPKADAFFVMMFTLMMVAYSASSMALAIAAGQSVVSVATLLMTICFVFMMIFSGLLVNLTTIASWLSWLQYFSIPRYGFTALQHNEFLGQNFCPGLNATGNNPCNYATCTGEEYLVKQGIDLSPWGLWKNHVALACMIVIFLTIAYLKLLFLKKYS
Nature of the series: BCRP inhibition in vesicles. It counts as in vitro ADME. The following applies: 0.05–5 µM.

The nature of series [3]: Clinical pharmacokinetic parameters of zanubrutinib. The format is in vivo, human.
Series [4] deals with T3, CYP1A2 (Homo sapiens, UniProt P05177).
T3 sequence (P05177 1-516): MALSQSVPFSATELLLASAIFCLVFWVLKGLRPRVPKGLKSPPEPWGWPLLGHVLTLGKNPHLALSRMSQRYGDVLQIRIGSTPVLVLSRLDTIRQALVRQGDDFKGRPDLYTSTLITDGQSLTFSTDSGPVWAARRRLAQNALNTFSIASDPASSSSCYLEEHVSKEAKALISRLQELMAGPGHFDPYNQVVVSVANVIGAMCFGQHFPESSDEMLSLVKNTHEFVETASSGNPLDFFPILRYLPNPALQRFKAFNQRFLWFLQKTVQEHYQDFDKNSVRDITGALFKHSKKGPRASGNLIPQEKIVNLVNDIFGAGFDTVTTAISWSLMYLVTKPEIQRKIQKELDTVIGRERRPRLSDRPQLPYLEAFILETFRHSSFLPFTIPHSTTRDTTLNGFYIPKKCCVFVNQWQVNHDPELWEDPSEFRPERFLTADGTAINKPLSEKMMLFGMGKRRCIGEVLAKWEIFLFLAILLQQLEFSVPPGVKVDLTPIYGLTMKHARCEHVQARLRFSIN
The note with it: 10 µM zanubrutinib, 30 min pre-incubation with HLMs and NADPH.

In series [5] the test system is CYP1A2. The following applies: DDI basic model value for induction.
For series [6] the following is noted: cited from earlier work.
Series [7] addresses T4, CYP2C8 (Homo sapiens, UniProt P10632).
T4 sequence (P10632 1-490): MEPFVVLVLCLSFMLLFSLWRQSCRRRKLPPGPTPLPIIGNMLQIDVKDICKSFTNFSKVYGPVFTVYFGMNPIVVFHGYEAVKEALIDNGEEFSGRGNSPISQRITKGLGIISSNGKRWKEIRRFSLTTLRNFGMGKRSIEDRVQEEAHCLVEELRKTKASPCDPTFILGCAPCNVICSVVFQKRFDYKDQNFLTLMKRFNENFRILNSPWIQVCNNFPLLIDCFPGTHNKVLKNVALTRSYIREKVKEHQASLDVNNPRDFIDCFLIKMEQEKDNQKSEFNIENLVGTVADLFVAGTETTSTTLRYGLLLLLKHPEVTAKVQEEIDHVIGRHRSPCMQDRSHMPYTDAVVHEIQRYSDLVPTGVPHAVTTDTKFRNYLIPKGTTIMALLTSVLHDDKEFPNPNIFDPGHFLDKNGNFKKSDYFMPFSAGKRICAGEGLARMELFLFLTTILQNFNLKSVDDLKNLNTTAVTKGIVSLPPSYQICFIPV
Nature of the series: CYP reversible inhibition in HLMs. The following applies: amodiaquine.

Series [8] deals with T1, CYP2B6. Nature of the series: Time-dependent CYP inhibition in HLMs. The following applies: 10 µM zanubrutinib, 30 min pre-incubation with HLMs and NADPH.
A further series deals with rCYP3A4 (Homo sapiens, UniProt P08684). Description: CYP phenotyping with recombinant CYPs. The following applies: 1 μM, only rCYP3A4 among 7 rCYPs.

pIC50, pKi: −log10 of the molar value.

CYP2D6, sequence (P10635 whole entry): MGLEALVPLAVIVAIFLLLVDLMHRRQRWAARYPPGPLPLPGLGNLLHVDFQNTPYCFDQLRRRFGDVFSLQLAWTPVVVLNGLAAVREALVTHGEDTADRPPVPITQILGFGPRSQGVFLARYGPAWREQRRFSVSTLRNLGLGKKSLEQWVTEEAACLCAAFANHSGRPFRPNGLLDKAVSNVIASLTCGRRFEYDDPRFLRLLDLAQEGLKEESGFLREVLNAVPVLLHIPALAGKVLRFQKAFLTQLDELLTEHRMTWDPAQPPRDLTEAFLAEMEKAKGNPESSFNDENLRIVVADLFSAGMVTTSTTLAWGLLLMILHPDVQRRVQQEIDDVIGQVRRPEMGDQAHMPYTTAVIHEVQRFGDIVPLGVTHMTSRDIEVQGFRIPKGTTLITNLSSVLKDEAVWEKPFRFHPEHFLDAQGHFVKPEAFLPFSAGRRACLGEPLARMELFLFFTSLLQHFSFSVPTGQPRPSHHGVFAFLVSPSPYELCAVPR
rCYP3A4, sequence (P08684 whole entry): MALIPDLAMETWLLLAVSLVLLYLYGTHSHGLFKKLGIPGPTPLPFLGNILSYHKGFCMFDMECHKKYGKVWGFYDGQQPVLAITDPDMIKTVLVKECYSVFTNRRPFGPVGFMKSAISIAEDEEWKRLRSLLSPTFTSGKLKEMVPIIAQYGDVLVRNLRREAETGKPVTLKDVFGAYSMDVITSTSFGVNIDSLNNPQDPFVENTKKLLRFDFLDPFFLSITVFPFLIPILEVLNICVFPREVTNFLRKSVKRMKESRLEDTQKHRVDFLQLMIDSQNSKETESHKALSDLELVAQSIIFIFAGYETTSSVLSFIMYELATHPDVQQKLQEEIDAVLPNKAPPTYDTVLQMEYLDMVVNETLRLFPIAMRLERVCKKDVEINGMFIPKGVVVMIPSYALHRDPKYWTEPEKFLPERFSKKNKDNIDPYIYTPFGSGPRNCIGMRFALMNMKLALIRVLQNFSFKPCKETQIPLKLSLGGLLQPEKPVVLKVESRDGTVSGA

In the case of `C=CC(=O)N1CCC([C@@H]2CCNc3c(C(N)=O)c(-c4ccc(Oc5ccccc5)cc4)nn32)CC1` [zanubrutinib], the negative-log IC50 (pIC50) (commonly −log10 of the IC50, conventionally taken in molar units) at CYP2B6 [1] was 3.92; against CYP2D6 it was 4.14. Moreover, the pKi (in general, −log10 of the Ki, conventionally taken in molar units) was 4.22 on CYP2B6 [1] (Ki, bupropion, Ki = IC50/2); 4.32 at CYP2B6 [1] (Kiu, bupropion, unbound Ki); 4.44 at CYP2D6 (Ki, dextromethorphan, Ki = IC50/2); 4.54 at CYP2D6 (Kiu, dextromethorphan, unbound Ki). Also, the R1 at CYP2B6 [1] (bupropion, DDI basic model, hepatic) is on record as 1.00; at CYP2D6 (dextromethorphan, DDI basic model, hepatic), 1.00; at CYP2C8 [7] (DDI basic model, hepatic), 1.05. The Ah on CYP2B6 [1] (bupropion, static model term, liver inhibition) came to 1.00; at CYP2D6 (dextromethorphan, static model term, liver inhibition), 1.00; on CYP2C8 [7] (static model term, liver inhibition) it was 0.95. The “R 3” value in the series with CYP2C8 [2] (DDI basic model value for induction) was determined as […]; in the series with CYP1A2 [5], 0.37. Further, the concentration giving a half-maximal response (EC50) (as a rule, the concentration giving half of the maximal effect) at 3 days in the series with CYP2C8 [2] (human, cryopreserved human hepatocytes) came to […]. The Ch with CYP2C8 [2] (static model term, induction in liver) came to […]. At human BCRP, the BCRP inhibition result is listed as “did not inhibit BCRP activity”. The “Igut (intestinal concentration, Dose/250 ml)” value in series [3] (160 mg BID) was […]. The “Fa (fraction absorbed)” value in [3] (estimated from a human mass balance study) was 0.70. For the same compound, the “Percent loss of enzymatic activity” value on CYP1A2 [4] was found to be 8.10%; on CYP2B6 [8] it was 15.5%. In addition, in series [6] (160 mg BID, dose-escalation study, ref data on file), the “C max (mean steady‐state concentration)” value was 338 ng/mL. For the same compound, the “ka (first‐order absorption rate constant)” value in [6] (estimated from population PK) is recorded as 0.526. In addition, the “Disappearance of zanubrutinib with recombinant CYP” value at rCYP3A4 is reported as “remarkable disappearance”.

The values above are taken from article PMC8524670 (Pharmacology Research & Perspectives, 2021).
